# Data as given in a melting point compilation (Tetko et al.; mined from patent text by program, amines drawn as free bases though some values may be those of a salt).
row,Compound,melting point [°C]
1,CC(=O)NC(C(=O)O)c1ccc2occc2c1 (stereo unspecified),230 to 232
2,Fc1ccc(-c2cc(Cl)c3sccc3n2)cc1,119 to 121
3,COC(=O)C(=O)c1ccc(S(=O)CCOc2ccc3ccccc3c2)cc1 (stereo unspecified),129 to 130
4,O=C1CCCc2ccc(OCCCCN3CCN(c4cccc5c4CCC5)CC3)nc2N1,207 to 208
5,COC(=O)C1=C(C)NC(C)=C(C(=O)OCCCCCCCCN)C1c1cccc([N+](=O)[O-])c1 (stereo unspecified),129 to 131
6,CCOC(=O)c1sc(C)nc1Oc1cccc(C(F)(F)F)c1,56
7,CS(=O)(=O)N(c1cccc(C(=O)NCc2nc[nH]n2)c1)C1CN(C(c2ccc(Cl)cc2)c2ccc(Cl)cc2)C1,210
8,CCOC(=O)Cc1ccc(-c2nc(COc3ccc(COc4nn(-c5ccccc5)cc4/C=C\c4cnn(CC)c4)cc3OC)c(C)o2)cc1,140 to 141
9,Cc1cc2nc(N3CCC(=S)CC3)nc(N)c2cc1C,187 to 188
10,CCn1c(C#N)ccc1-c1ccc2c(c1)C(C)(C)OC(=S)N2,212 to 213
11,CSCCCC(=O)C(=C1NCCCS1)[N+](=O)[O-],49 to 49.5
12,COC(=O)N[C@H](C(=O)O)C(C)(C)C,106 to 108
13,OC1CSC(Oc2cccc(-c3cccnc3)n2)C(O)C1O (stereo unspecified),179
14,Nc1cc(-c2cccnc2)ccc1S(N)(=O)=O,240 to 243
15,Cc1cnc(C)c(N(CCN(C)C)C(=O)N(C)C)n1,96 to 98
16,CCC(CC)C(=O)C(C1CCc2ccccc2N1)N1CCN(c2cccc3[nH]ccc23)CC1 (stereo unspecified),145 to 148
17,COc1cccc(-c2cnc(C#N)c(C#N)n2)c1,139 to 140
18,Cc1c(C(=O)c2cnn(C)c2OCc2ccccc2)ccc(S(C)(=O)=O)c1C1=NOCC1,152 to 153
19,Cc1cccc(OCCCN2CCC(C(O)(c3ccc(F)cc3)c3ccc(F)cc3)CC2)c1,112 to 114
20,CCOP(OCC)c1ccccc1P(c1cc(C(C)(C)C)c(OC)c(C(C)(C)C)c1)c1cc(C(C)(C)C)c(OC)c(C(C)(C)C)c1,104 to 105
21,CCCCCCCCCCCCCCCCSCC(CNS(=O)(=O)CCCCl)OC(=O)NC (stereo unspecified),84.5 to 85.5
22,CC1(C)C=C(c2ccccn2)c2ccc(Cl)c(Cl)c2OC1,112
23,Cn1nc(-c2cc([N+](=O)[O-])c(Cl)cc2F)c(Cl)c1S(C)=O (stereo unspecified),151
24,Cc1cccc(N(CC(=O)OC(C)(C)C)C(=O)CN2C(=O)c3ccccc3C2=O)c1,166

row,Compound,melting point [°C]
1,Fc1ccc(-c2ccn(CC3CCNCC3)c2-c2ccncc2)cc1,174 to 176
2,CC(C)(C)CC(C)(C)c1ccc(Oc2ccc(C(F)(F)F)cc2NC(=O)Nc2cc(C(F)(F)F)cc(C(F)(F)F)c2)c(C(=O)O)c1,233
3,OCC(CO)OCn1c(Cl)nc2c(Cl)c(Cl)c(Cl)c(Cl)c21,155
4,COC(=O)c1ccc(OC)c2c1OCCCO2,212
5,COc1cc(N)c(Cl)cc1C(=O)NC1CCN(CCCC(=O)N2C(C)CCCC2C)CC1OC (stereo unspecified),202
6,O=C(O)[C@H]1Cc2ccccc2CN1S(=O)(=O)c1ccc([N+](=O)[O-])cc1,140
7,COc1ccccc1C(O)(CC#N)c1ccccc1OC,170 to 180
8,COc1ccc(C(=O)Nc2nc(-c3cccc(C#N)c3)c(-n3cncn3)s2)cc1,292 to 294
9,CC(CO)Nc1ccc(-c2cccc(C(F)(F)F)c2)nn1 (stereo unspecified),143 to 144
10,Cn1c(=O)n(C2CCNCC2)c2ccc(Cl)cc21,201
11,CN(C)C1(c2ccccc2)CCC(CNC(=O)N2CCC(c3c[nH]c4ccccc34)C2)CC1 (stereo unspecified),103 to 106
12,O=C(O)Cc1ccc(OCCNC(=O)C2Cc3ccccc3N2S(=O)(=O)c2ccc(-c3cc(F)ccc3Cl)cc2)cc1 (stereo unspecified),78 to 84
13,CN(C)CCCOc1ccc(Nc2nccc(-c3cccnc3)n2)cc1,85 to 87
14,CS(=O)(=O)c1nccc(-n2ncc3ccccc32)n1,177 to 181
15,Fc1ccc(NC(=S)c2ccccn2)c(F)c1,124 to 129
16,O=C(O)c1cc2c3cc(Br)c(Br)cc3n(Cc3ccccc3)c2s1,269 to 273
17,NNc1cc(-c2ccccn2)ccn1,120 to 121
18,COc1c(C)c2c(c(C(=O)O)c1C/C=C(\C)CCC(=O)O)C(=O)OC2,172 to 174
19,Cc1cc(C)cc(P(=O)(O)O)c1,197 to 199
20,N#CCS(=O)(=O)CC(=O)O,104 to 105
21,CC(=O)NC(Cc1ccccc1)C(=O)NC(C)C(=O)O (stereo unspecified),128 to 132
22,CCC(Oc1cccc(C(F)(F)F)c1Cl)C1=NCCN1 (stereo unspecified),102 to 103
23,CSc1ccc(-c2nnc(Oc3ccc(F)cc3F)cc2-c2ccc(Cl)cc2)cc1,163 to 164
24,O=C1c2ccccc2C(=O)N1Cc1noc(-c2ncn3c2[C@@H]2CCN2C(=O)c2ccccc2-3)n1,290 to 292

row,Compound,melting point [°C]
1,Cc1cccc(C(N)=O)c1SSc1c(C)cccc1C(N)=O,189 to 190
2,N[C@@]1(C(=O)O)C[C@H](NC(=O)Nc2ccccc2Cl)[C@H]2[C@H](C(=O)O)[C@H]21 (relative stereo),> 250
3,O=c1c(-c2ccccc2)c(CSc2ncnc3[nH]cnc23)oc2ccc(Br)cc12,214 to 218
4,CCc1nc(C(=O)OC)c(OC)c(N)c1F,110 to 113
5,Cc1ccc(C(OS(=O)(=O)c2c(C)cc(C)c(S(=O)(=O)OC(c3ccc(C)cc3)(C(F)(F)F)C(F)(F)F)c2C)(C(F)(F)F)C(F)(F)F)cc1,178
6,Nc1cc(OCc2cccc(I)c2)c(C(=O)NC2CN3CCC2CC3)cc1Cl (stereo unspecified),102 to 104
7,O=C(CCCc1ccccc1)OCCCCCCCCCCCCNCC(O)c1ccccc1 (stereo unspecified),73 to 74
8,NC(=O)OC[C@H]1NC(=O)[C@H]1NC(=O)OCc1ccccc1,192 to 193
9,CC(=O)c1ccc(-c2coc3ccc(-c4nnc(C)o4)cc23)cc1,197 to 198
10,Cc1cc(N2N=CCNC2=O)cc(Cl)c1Sc1nccn1C,173 to 174
11,CCCCCCCCCCCCCCn1ccc(C(=O)OCC)c1,32 to 33
12,CC(=O)NCc1cc([N+](=O)[O-])ccc1C,133 to 138
13,O=c1[nH]c2ccc(C(F)(F)F)cc2c(-c2cc(Cl)ccc2O)c1CCO,253 to 255
14,CSc1cc(C)nc(SC)c1NC(=O)CCCCCCCSc1nc2cccc(C(F)(F)F)c2o1,115 to 116
15,O=C(O)CC1(CCCCCCCCCCCC2(C(=O)O)CC2)CC1,75.3 to 78.9
16,COc1cc(C=CC(=O)CSc2ccccc2)ccc1O,78 to 80
17,CCCSc1nc[nH]n1,53 to 56
18,CC(C)CCN1C(=O)C(NC(=O)Nc2cccc(-c3nnn[nH]3)c2)C(=O)N(c2ccccc2)c2ccccc21 (stereo unspecified),220 to 222
19,C=Cn1cc(C(=O)O)c(=O)c2cc(F)c(N3CCC4CCC(C3)N4C)cc21 (stereo unspecified),214 to 215
20,Nc1ccc(Cl)cc1C(O)(C#CC1CC1)C(F)(F)F (stereo unspecified),141 to 143
21,COc1ccc(S(=O)(=O)N2c3ccc(Br)cc3-c3ccccc3C2C)cc1 (stereo unspecified),192 to 194
22,O=C(O)c1cnn2c(C(F)F)cc(-c3ccc(OC(F)(F)F)cc3)nc12,231
23,COc1cc2cc(-c3ccc(=O)[nH]n3)sc2cc1OC,> 300
